One assay has as its target T1, Cbl-b (Homo sapiens, UniProt Q13191).
T1 construct: biotin (biotinylated)
The assay is described as follows: Cbl-b probe displacement HTRF binding assay. The note with it: 0.4 nM biotinylated Cbl-b, 150 nM BODIPY probe. The method, boiled down:
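Biotinylated Cbl-b was preincubated with compound for 60 min at room temperature in HEPES/NaCl/Triton/TCEP/BSA buffer. BODIPY probe was added for 15 min, followed by streptavidin-terbium, and the HTRF signal was read. Displacement was normalised to DMSO and no-protein controls, and affinity was obtained from a four-parameter dose-response fit.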
For orientation: Time-resolved FRET reads energy transfer from a long-lived donor to a nearby acceptor.

In the next assay the test system is Jurkat cells. The assay is described as follows: IL-2 secretion assay in CD3/CD28-activated Jurkat cells (AlphaLISA). Format: cell-based. The note with it: Homo sapiens, CD3/CD28 T Cell Activator, 24 h, IL-2 AlphaLISA. The method, boiled down: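 Jurkat cells (50,000/well) were preincubated 1 h at 37° C with compound in a 16-point 1:2 series spanning 10 μM to 300 pM final. Cells were then activated with CD3/CD28 T cell activator, and secreted IL-2 was read by AlphaLISA. EC50 came from 4-parameter logistic fits.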
On the technique in general: In Alpha technology, singlet oxygen from a donor bead excites a nearby acceptor bead.

In patent US20260028336A1 (Arcus Biosciences, Inc., priority 2022, published 2026) one finds IC50 and EC50 data, which are given here for 21 compounds.

Molecules are shown by their SMILES. Bounds are passed on as bounds.

T1 sequence (Q13191 whole entry, species assumed): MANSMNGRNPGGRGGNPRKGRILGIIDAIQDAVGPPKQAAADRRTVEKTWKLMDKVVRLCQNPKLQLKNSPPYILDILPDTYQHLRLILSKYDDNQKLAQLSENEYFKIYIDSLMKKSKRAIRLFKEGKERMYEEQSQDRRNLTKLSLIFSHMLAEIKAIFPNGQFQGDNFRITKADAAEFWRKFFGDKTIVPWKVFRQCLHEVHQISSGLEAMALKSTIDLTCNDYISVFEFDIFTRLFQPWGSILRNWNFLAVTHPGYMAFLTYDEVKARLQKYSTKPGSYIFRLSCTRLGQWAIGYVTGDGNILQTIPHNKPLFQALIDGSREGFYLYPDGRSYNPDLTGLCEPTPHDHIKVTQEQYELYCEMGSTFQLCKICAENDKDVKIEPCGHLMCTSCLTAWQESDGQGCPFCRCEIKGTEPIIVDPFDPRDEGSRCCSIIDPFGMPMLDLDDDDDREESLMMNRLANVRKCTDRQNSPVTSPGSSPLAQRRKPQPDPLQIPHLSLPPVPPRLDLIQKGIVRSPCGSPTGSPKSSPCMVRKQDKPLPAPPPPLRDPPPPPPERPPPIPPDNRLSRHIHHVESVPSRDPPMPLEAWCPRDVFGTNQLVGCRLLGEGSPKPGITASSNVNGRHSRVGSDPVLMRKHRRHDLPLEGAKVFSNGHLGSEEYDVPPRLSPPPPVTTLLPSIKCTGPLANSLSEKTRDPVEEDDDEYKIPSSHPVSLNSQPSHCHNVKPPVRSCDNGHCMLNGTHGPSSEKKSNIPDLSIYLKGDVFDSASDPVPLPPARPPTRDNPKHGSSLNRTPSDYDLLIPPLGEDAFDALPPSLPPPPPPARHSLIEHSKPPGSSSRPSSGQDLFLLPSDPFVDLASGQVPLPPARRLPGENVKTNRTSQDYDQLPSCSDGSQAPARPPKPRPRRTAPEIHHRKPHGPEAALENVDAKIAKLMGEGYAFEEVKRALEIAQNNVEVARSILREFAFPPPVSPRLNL

By IC50 is commonly meant the concentration needed to halve the response being measured. The EC50 is the concentration that produces a half-maximal response. A lower EC50 goes with an effect from little substance. Turning to `CC1CC(c2cccc(-n3cc(C4CC4)c4cc(CN5CCN(C)[C@H](C)C5)[nH]c4c3=O)c2)(c2nncn2C)C1` (stereo partly drawn) [Example 61, 4-cyclopropyl-2-{[(3R)-3,4-dimethylpiperazin-1-yl]methyl}-6-{3-[3-methyl-1-(4-methyl-4H-1,2,4-triazol-3-yl)cyclobutyl]phenyl}-1H,6H,7H-pyrrolo[2,3-c]pyridin-7-one], the IC50 at Cbl-b fell in the range of 0.1 to 1 µM. This compound came in with an EC50 in the assay on Jurkat cells of 1 to 5 µM.

At Cbl-b, `CC1CC(c2cccc(-n3cc(C4CC4)c4cc(CN5C[C@@H]6C[C@H]5CN6C)[nH]c4c3=O)c2)(c2nncn2C)C1` (stereo partly drawn) [Example 62] had an IC50 of 0.1 to 1 µM. In the assay with Jurkat cells, the EC50 was > 5 µM.

On to `CC1CC(c2cccc(-n3cc(C4CC4)c4cc(CN5CCC6(CC6)C5)[nH]c4c3=O)c2)(c2nncn2C)C1` (stereo not drawn) [Example 63, 2-({5-azaspiro[2.4]heptan-5-yl}methyl)-4-cyclopropyl-6-{3-[(1r,3s)-3-methyl-1-(4-methyl-4H-1,2,4-triazol-3-yl)cyclobutyl]phenyl}-1H,6H,7H-pyrrolo[2,3-c]pyridin-7-one], for which, on Cbl-b, the IC50 was < 0.1 µM. The EC50 in the assay with Jurkat cells was < 0.1 µM.

Regarding `CC1CC(c2cccc(-n3cc(C4CC4)c4cc(CN5CCC[C@H](F)C5)[nH]c4c3=O)c2)(c2nncn2C)C1` (stereo partly drawn) [Example 64, 4-cyclopropyl-2-{[(3S)-3-fluoropiperidin-1-yl]methyl}-6-{3-[(1r,3s)-3-methyl-1-(4-methyl-4H-1,2,4-triazol-3-yl)cyclobutyl]phenyl}-1H,6H,7H-pyrrolo[2,3-c]pyridin-7-one], the IC50 at Cbl-b was < 0.1 µM. Besides, the EC50 in the assay on Jurkat cells was in the range of 0.1 to 1 µM.

Turning to `CC1CC(c2cccc(-n3cc(C4CC4)c4cc(CN5C[C@@H](F)C[C@H](F)C5)[nH]c4c3=O)c2)(c2nncn2C)C1` (stereo partly drawn) [Example 65, 4-cyclopropyl-2-{[(3S,5S)-3,5-difluoropiperidin-1-yl]methyl}-6-{3-[(1r,3s)-3-methyl-1-(4-methyl-4H-1,2,4-triazol-3-yl)cyclobutyl]phenyl}-1H,6H,7H-pyrrolo[2,3-c]pyridin-7-one], the IC50 on Cbl-b is < 0.1 µM. Further, the EC50 in the assay on Jurkat cells was 1 to 5 µM.

Compound `CC1CC(c2cccc(-n3cc(C4CC4)c4cc(CN5CCCC(F)(F)C5)[nH]c4c3=O)c2)(c2nncn2C)C1` (stereo not drawn) [Example 66, 4-cyclopropyl-2-[(3,3-difluoropiperidin-1-yl)methyl]-6-{3-[(1r)-3-methyl-1-(4-methyl-4H-1,2,4-triazol-3-yl)cyclobutyl]phenyl}-1H,6H,7H-pyrrolo[2,3-c]pyridin-7-one] returned an IC50 at Cbl-b of 0.1 to 1 µM. In the assay with Jurkat cells, this compound registered an EC50 of 1 to 5 µM.

Compound `CC1CC(c2cccc(-n3cc(C4CC4)c4cc(CN5C[C@H](F)C[C@H](F)C5)[nH]c4c3=O)c2)(c2nncn2C)C1` (stereo partly drawn) [Example 67, 4-cyclopropyl-2-{[(3R,5S)-3,5-difluoropiperidin-1-yl]methyl}-6-{3-[(1r)-3-methyl-1-(4-methyl-4H-1,2,4-triazol-3-yl)cyclobutyl]phenyl}-1H,6H,7H-pyrrolo[2,3-c]pyridin-7-one] displayed an IC50 on Cbl-b of 0.1 to 1 µM. This compound registered an EC50 in the assay on Jurkat cells of 1 to 5 µM.

Regarding `CC1CC(c2cccc(-n3cc(C4CC4)c4cc(CN5CCN(C)C[C@@H]5C(C)C)[nH]c4c3=O)c2)(c2nncn2C)C1` (stereo partly drawn) [Example 68, 4-cyclopropyl-2-{[(2S)-4-methyl-2-(propan-2-yl)piperazin-1-yl]methyl}-6-{3-[(1r,3s)-3-methyl-1-(4-methyl-4H-1,2,4-triazol-3-yl)cyclobutyl]phenyl}-1H,6H,7H-pyrrolo[2,3-c]pyridin-7-one], at Cbl-b, the IC50 is < 0.1 µM. Besides, the EC50 with Jurkat cells is 0.1 to 1 µM.

At Cbl-b, `CC1CC(c2cccc(-n3cc(C4CC4)c4cc(CN(C)S(C)(=O)=O)[nH]c4c3=O)c2)(c2nncn2C)C1` (stereo not drawn) [Example 69, N-[(4-cyclopropyl-7-oxo-6-{3-[(1r,3s)-3-methyl-1-(4-methyl-4H-1,2,4-triazol-3-yl)cyclobutyl]phenyl}-1H,6H,7H-pyrrolo[2,3-c]pyridin-2-yl)methyl]-N-methylmethanesulfonamide] came in with an IC50 of 0.1 to 1 µM. The compound further gave an EC50 with Jurkat cells of 1 to 5 µM.

Take `Cn1cnnc1C1(c2cccc(-n3cc(C4CC4)c4cc(CN5CCC6(CC6)C5)[nH]c4c3=O)c2)CC2(CC2)C1` [Example 70, 2-({5-azaspiro[2.4]heptan-5-yl}methyl)-4-cyclopropyl-6-{3-[5-(4-methyl-4H-1,2,4-triazol-3-yl)spiro[2.3]hexan-5-yl]phenyl}-1H,6H,7H-pyrrolo[2,3-c]pyridin-7-one]: on Cbl-b, the IC50 was < 0.1 µM. The EC50 with Jurkat cells fell in the range of 0.1 to 1 µM.

For `C[C@@H]1CN(Cc2cc3c(C4CC4)cn(-c4cccc(C5(c6nncn6C)CC6(CC6)C5)c4)c(=O)c3[nH]2)CCO1` [Example 71, 4-cyclopropyl-2-[[(2R)-2-methylmorpholin-4-yl]methyl]-6-[3-[5-(4-methyl-1,2,4-triazol-3-yl)spiro[2.3]hexan-5-yl]phenyl]-1H-pyrrolo[2,3-c]pyridin-7-one], the IC50 at Cbl-b is < 0.1 µM. Moreover, the EC50 in the assay on Jurkat cells lay in the range of 0.1 to 1 µM.

`CC(C)[C@H]1CNCCN1Cc1cc2c(C3CC3)cn(-c3cccc(C4(c5nncn5C)CC5(CC5)C4)c3)c(=O)c2[nH]1` [Example 72, 4-cyclopropyl-6-{3-[5-(4-methyl-4H-1,2,4-triazol-3-yl)spiro[2.3]hexan-5-yl]phenyl}-2-{[(2S)-2-(propan-2-yl)piperazin-1-yl]methyl}-1H,6H,7H-pyrrolo[2,3-c]pyridin-7-one] returned an IC50 at Cbl-b of 0.1 to 1 µM. In addition, in the assay on Jurkat cells, the EC50 was in the range of 1 to 5 µM.

Turning to `CC(C)[C@H]1CN(C)CCN1Cc1cc2c(C3CC3)cn(-c3cccc(C4(c5nncn5C)CC5(CC5)C4)c3)c(=O)c2[nH]1` [Example 73, 4-cyclopropyl-2-{[(2S)-4-methyl-2-(propan-2-yl)piperazin-1-yl]methyl}-6-{3-[5-(4-methyl-4H-1,2,4-triazol-3-yl)spiro[2.3]hexan-5-yl]phenyl}-1H,6H,7H-pyrrolo[2,3-c]pyridin-7-one], the IC50 on Cbl-b is < 0.1 µM. The EC50 in the assay on Jurkat cells is 0.1 to 1 µM.

Consider `C[C@H]1CCCN(Cc2cc3c(C4CC4)cn(-c4cccc(C5(c6nncn6C)CC6(CC6)C5)c4)c(=O)c3[nH]2)C1` [Example 74, 4-cyclopropyl-2-[[(3S)-3-methylpiperidin-1-yl]methyl]-6-[3-[5-(4-methyl-1,2,4-triazol-3-yl)spiro[2.3]hexan-5-yl]phenyl]-1H-pyrrolo[2,3-c]pyridin-7-one], for which the IC50 at Cbl-b was < 0.1 µM. For the same compound, in the assay with Jurkat cells, the EC50 was < 0.1 µM.

As to `C[C@H]1CCCN(Cc2cc3c(C4CC4)cn(-c4cccc(C5(Cc6nncn6C)COC5)c4)c(=O)c3[nH]2)C1` [Example 75, 4-cyclopropyl-2-[[(3S)-3-methylpiperidin-1-yl]methyl]-6-[3-[3-[(4-methyl-1,2,4-triazol-3-yl)methyl]oxetan-3-yl]phenyl]-1H-pyrrolo[2,3-c]pyridin-7-one], the IC50 on Cbl-b was < 0.1 µM. In the assay on Jurkat cells, the EC50 is < 0.1 µM.

`Cn1cnnc1CC1(c2cccc(-n3cc(C4CC4)c4cc(CN5CCC6(CC6)C5)[nH]c4c3=O)c2)COC1` [Example 76, 2-({5-azaspiro[2.4]heptan-5-yl}methyl)-4-cyclopropyl-6-(3-{3-[(4-methyl-4H-1,2,4-triazol-3-yl)methyl]oxetan-3-yl}phenyl)-1H,6H,7H-pyrrolo[2,3-c]pyridin-7-one]: the IC50 at Cbl-b was < 0.1 µM. This compound also registered an EC50 with Jurkat cells of 0.1 to 1 µM.

As for `C[C@H]1CCCN(Cc2cc3c(C4CC4)cn(-c4cccc(C5(c6nncn6C)CC(F)(F)C5)c4)c(=O)c3[nH]2)C1` [Example 78, 4-cyclopropyl-6-[3-[3,3-difluoro-1-(4-methyl-1,2,4-triazol-3-yl)cyclobutyl]phenyl]-2-[[(3S)-3-methylpiperidin-1-yl]methyl]-1H-pyrrolo[2,3-c]pyridin-7-one], at Cbl-b, the IC50 was < 0.1 µM. The 50% effective concentration (EC50) in the assay on Jurkat cells was < 0.1 µM.

In turn, `Cn1cnnc1C1(c2cccc(-n3cc(C4CC4)c4cc(CN5CCC(F)(F)C5)[nH]c4c3=O)c2)CC(F)(F)C1` [Example 79, 4-cyclopropyl-6-{3-[3,3-difluoro-1-(4-methyl-4H-1,2,4-triazol-3-yl)cyclobutyl]phenyl}-2-[(3,3-difluoropyrrolidin-1-yl)methyl]-1H,6H,7H-pyrrolo[2,3-c]pyridin-7-one] came in with an IC50 on Cbl-b of 0.1 to 1 µM. The EC50 in the assay on Jurkat cells fell in the range of 0.1 to 1 µM.

`Cn1cnnc1C1(c2cccc(-n3cc(C4CC4)c4cc(CN5CCC[C@@H]5CO)[nH]c4c3=O)c2)CC(F)(F)C1` [Example 82, 4-cyclopropyl-6-{3-[3,3-difluoro-1-(4-methyl-4H-1,2,4-triazol-3-yl)cyclobutyl]phenyl}-2-{[(2R)-2-(hydroxymethyl)pyrrolidin-1-yl]methyl}-1H,6H,7H-pyrrolo[2,3-c]pyridin-7-one]: the IC50 at Cbl-b is < 0.1 µM. For the same compound, in the assay on Jurkat cells, the EC50 was 1 to 5 µM.

For `Cn1cnnc1C1(c2cccc(-n3cc(C4CC4)c4cc(CNCC5(O)CCC5)[nH]c4c3=O)c2)CC(F)(F)C1` [Example 83, 4-cyclopropyl-6-{3-[3,3-difluoro-1-(4-methyl-4H-1,2,4-triazol-3-yl)cyclobutyl]phenyl}-2-({[(1-hydroxycyclobutyl)methyl]amino}methyl)-1H,6H,7H-pyrrolo[2,3-c]pyridin-7-one], on Cbl-b, the IC50 is < 0.1 µM. The same compound had an EC50 in the assay on Jurkat cells of 0.1 to 1 µM.

With `CC(O)C1(NCc2cc3c(C4CC4)cn(-c4cccc(C5(c6nncn6C)CC(F)(F)C5)c4)c(=O)c3[nH]2)CC1` (stereo not drawn) [Example 84, 4-cyclopropyl-6-{3-[3,3-difluoro-1-(4-methyl-4H-1,2,4-triazol-3-yl)cyclobutyl]phenyl}-2-({[1-(1-hydroxyethyl)cyclopropyl]amino}methyl)-1H,6H,7H-pyrrolo[2,3-c]pyridin-7-one], the IC50 on Cbl-b was < 0.1 µM. In the assay on Jurkat cells, this compound gave an EC50 of 1 to 5 µM.
